{"source": "PubChem BioAssay (NCI)", "test_in_all_cases": "DTP human tumour cell line panel, 48 h", "key": {"SK-MEL-5 melanoma": {"test_system": "SK-MEL-5 melanoma"}, "UACC-257 melanoma": {"test_system": "UACC-257 melanoma"}, "CCRF-CEM leukemia": {"test_system": "CCRF-CEM leukemia"}, "SF-268 CNS": {"test_system": "SF-268 CNS"}, "ACHN renal": {"test_system": "ACHN renal"}, "DU-145 prostate": {"test_system": "DU-145 prostate"}, "MDA-MB-231 breast": {"test_system": "MDA-MB-231 breast"}, "SK-MEL-2 melanoma": {"test_system": "SK-MEL-2 melanoma"}, "NCI-H460 lung": {"test_system": "NCI-H460 lung"}, "M14 melanoma": {"test_system": "M14 melanoma"}, "U251 CNS": {"test_system": "U251 CNS"}, "MCF7 breast": {"test_system": "MCF7 breast"}, "HOP-92 NSCLC": {"test_system": "HOP-92 NSCLC"}, "SNB-75 CNS": {"test_system": "SNB-75 CNS"}, "OVCAR-4 ovarian": {"test_system": "OVCAR-4 ovarian"}, "SF-539 CNS": {"test_system": "SF-539 CNS"}, "HCT-15 colon": {"test_system": "HCT-15 colon"}, "T-47D breast": {"test_system": "T-47D breast"}, "TK-10 renal": {"test_system": "TK-10 renal"}, "NCI/ADR-RES ovarian": {"test_system": "NCI/ADR-RES ovarian"}, "MOLT-4 leukemia": {"test_system": "MOLT-4 leukemia"}, "EKVX NSCLC": {"test_system": "EKVX NSCLC"}, "OVCAR-8 ovarian": {"test_system": "OVCAR-8 ovarian"}, "NCI-H522 lung": {"test_system": "NCI-H522 lung"}, "RXF 393 renal": {"test_system": "RXF 393 renal"}, "MDA-N": {"test_system": "MDA-N"}, "A498 renal": {"test_system": "A498 renal"}, "RPMI-8226 leukemia": {"test_system": "RPMI-8226 leukemia"}, "SK-OV-3 ovarian": {"test_system": "SK-OV-3 ovarian"}, "UACC-62 melanoma": {"test_system": "UACC-62 melanoma"}, "A549 NSCLC": {"test_system": "A549 NSCLC"}, "OVCAR-3 ovarian": {"test_system": "OVCAR-3 ovarian"}, "HOP-62 NSCLC": {"test_system": "HOP-62 NSCLC"}, "SW-620 colon": {"test_system": "SW-620 colon"}, "HT29 colon": {"test_system": "HT29 colon"}, "HS 578T breast": {"test_system": "HS 578T breast"}, "SN12C renal": {"test_system": "SN12C renal"}, "786-0 renal": {"test_system": "786-0 renal"}, "CAKI-1 renal": {"test_system": "CAKI-1 renal"}, "KM12 colon": {"test_system": "KM12 colon"}, "LOX IMVI melanoma": {"test_system": "LOX IMVI melanoma"}, "UO-31 renal": {"test_system": "UO-31 renal"}, "IGROV1 ovarian": {"test_system": "IGROV1 ovarian"}, "SK-MEL-28 melanoma": {"test_system": "SK-MEL-28 melanoma"}, "NCI-H23 lung": {"test_system": "NCI-H23 lung"}, "PC-3 prostate": {"test_system": "PC-3 prostate"}, "COLO 205 colon": {"test_system": "COLO 205 colon"}, "HL-60(TB) leukemia": {"test_system": "HL-60(TB) leukemia"}, "SR leukemia": {"test_system": "SR leukemia"}, "MALME-3M melanoma": {"test_system": "MALME-3M melanoma"}, "OVCAR-5 ovarian": {"test_system": "OVCAR-5 ovarian"}, "HCT-116 colon": {"test_system": "HCT-116 colon"}, "MDA-MB-435": {"test_system": "MDA-MB-435"}, "SF-295 CNS": {"test_system": "SF-295 CNS"}, "SNB-19 CNS": {"test_system": "SNB-19 CNS"}, "BT-549 breast": {"test_system": "BT-549 breast"}, "K-562 leukemia": {"test_system": "K-562 leukemia"}}, "note": "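Five compound concentrations were applied to cells in 96-well plates for 48 hours; endpoints were derived by simple linear interpolation of the resulting dose-response curve. TGI is the concentration that stops growth completely.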"}
{"compound": "O=C(c1cccc(F)c1F)N1CCc2c([nH]c3ccccc23)C1c1ccc2c(c1)OCO2", "note": "(configuration not stated)", "values": [{"measurement": "TGI", "setting": "SK-MEL-5 melanoma", "value": 13.4, "unit": "µM"}, {"measurement": "TGI", "setting": "UACC-257 melanoma", "value": 60.4, "unit": "µM"}, {"measurement": "TGI", "setting": "CCRF-CEM leukemia", "value": "> 100", "unit": "µM"}, {"measurement": "TGI", "setting": "SF-268 CNS", "value": "> 100", "unit": "µM"}, {"measurement": "TGI", "setting": "ACHN renal", "value": "> 100", "unit": "µM"}, {"measurement": "TGI", "setting": "DU-145 prostate", "value": "> 100", "unit": "µM"}, {"measurement": "TGI", "setting": "MDA-MB-231 breast", "value": 74.5, "unit": "µM"}, {"measurement": "TGI", "setting": "SK-MEL-2 melanoma", "value": 16.5, "unit": "µM"}, {"measurement": "TGI", "setting": "NCI-H460 lung", "value": 29.9, "unit": "µM"}, {"measurement": "TGI", "setting": "M14 melanoma", "value": 18.4, "unit": "µM"}, {"measurement": "TGI", "setting": "U251 CNS", "value": "> 100", "unit": "µM"}, {"measurement": "TGI", "setting": "MCF7 breast", "value": 57.4, "unit": "µM"}, {"measurement": "TGI", "setting": "HOP-92 NSCLC", "value": "> 100", "unit": "µM"}, {"measurement": "TGI", "setting": "SNB-75 CNS", "value": 22.2, "unit": "µM"}, {"measurement": "TGI", "setting": "OVCAR-4 ovarian", "value": 67.8, "unit": "µM"}, {"measurement": "TGI", "setting": "SF-539 CNS", "value": 21.4, "unit": "µM"}, {"measurement": "TGI", "setting": "HCT-15 colon", "value": "> 100", "unit": "µM"}, {"measurement": "TGI", "setting": "T-47D breast", "value": "> 100", "unit": "µM"}, {"measurement": "TGI", "setting": "TK-10 renal", "value": "> 100", "unit": "µM"}, {"measurement": "TGI", "setting": "NCI/ADR-RES ovarian", "value": 53, "unit": "µM"}, {"measurement": "TGI", "setting": "MOLT-4 leukemia", "value": "> 100", "unit": "µM"}, {"measurement": "TGI", "setting": "EKVX NSCLC", "value": 65.3, "unit": "µM"}, {"measurement": "TGI", "setting": "OVCAR-8 ovarian", "value": "> 100", "unit": "µM"}, {"measurement": "TGI", "setting": "NCI-H522 lung", "value": 60.2, "unit": "µM"}, {"measurement": "TGI", "setting": "RXF 393 renal", "value": 35.4, "unit": "µM"}, {"measurement": "TGI", "setting": "MDA-N", "value": 7.01, "unit": "µM"}, {"measurement": "TGI", "setting": "A498 renal", "value": "> 100", "unit": "µM"}, {"measurement": "TGI", "setting": "RPMI-8226 leukemia", "value": 48.1, "unit": "µM"}, {"measurement": "TGI", "setting": "SK-OV-3 ovarian", "value": 51.9, "unit": "µM"}, {"measurement": "TGI", "setting": "UACC-62 melanoma", "value": 48.8, "unit": "µM"}, {"measurement": "TGI", "setting": "A549 NSCLC", "value": 72.5, "unit": "µM"}, {"measurement": "TGI", "setting": "OVCAR-3 ovarian", "value": 5.26, "unit": "µM"}, {"measurement": "TGI", "setting": "HOP-62 NSCLC", "value": 2.83, "unit": "µM"}, {"measurement": "TGI", "setting": "SW-620 colon", "value": "> 100", "unit": "µM"}, {"measurement": "TGI", "setting": "HT29 colon", "value": "> 100", "unit": "µM"}, {"measurement": "TGI", "setting": "HS 578T breast", "value": "> 100", "unit": "µM"}, {"measurement": "TGI", "setting": "SN12C renal", "value": 91.1, "unit": "µM"}, {"measurement": "TGI", "setting": "786-0 renal", "value": "> 100", "unit": "µM"}, {"measurement": "TGI", "setting": "CAKI-1 renal", "value": 87.2, "unit": "µM"}, {"measurement": "TGI", "setting": "KM12 colon", "value": 32.7, "unit": "µM"}, {"measurement": "TGI", "setting": "LOX IMVI melanoma", "value": "> 100", "unit": "µM"}, {"measurement": "TGI", "setting": "UO-31 renal", "value": 47.7, "unit": "µM"}, {"measurement": "TGI", "setting": "IGROV1 ovarian", "value": "> 100", "unit": "µM"}, {"measurement": "TGI", "setting": "SK-MEL-28 melanoma", "value": "> 100", "unit": "µM"}, {"measurement": "TGI", "setting": "NCI-H23 lung", "value": "> 100", "unit": "µM"}, {"measurement": "TGI", "setting": "PC-3 prostate", "value": 39.2, "unit": "µM"}, {"measurement": "TGI", "setting": "COLO 205 colon", "value": 12.9, "unit": "µM"}, {"measurement": "TGI", "setting": "HL-60(TB) leukemia", "value": 18.7, "unit": "µM"}, {"measurement": "TGI", "setting": "SR leukemia", "value": 21.3, "unit": "µM"}, {"measurement": "TGI", "setting": "MALME-3M melanoma", "value": "> 100", "unit": "µM"}, {"measurement": "TGI", "setting": "OVCAR-5 ovarian", "value": "> 100", "unit": "µM"}, {"measurement": "TGI", "setting": "HCT-116 colon", "value": "> 100", "unit": "µM"}, {"measurement": "TGI", "setting": "MDA-MB-435", "value": 6.09, "unit": "µM"}, {"measurement": "TGI", "setting": "SF-295 CNS", "value": 26.3, "unit": "µM"}, {"measurement": "TGI", "setting": "SNB-19 CNS", "value": 61.4, "unit": "µM"}, {"measurement": "TGI", "setting": "BT-549 breast", "value": "> 100", "unit": "µM"}, {"measurement": "TGI", "setting": "K-562 leukemia", "value": "> 100", "unit": "µM"}]}
